In PMC9578396, “Intrinsic Antibacterial Activity of Xeruborbactam In Vitro: Assessing Spectrum and Mode of Action” (Antimicrobial Agents and Chemotherapy, 2022):

Molecular target: T1, PBP2 (Acinetobacter baumannii, UniProt D0C8Z9)
T1 construct: endogenous in cells
T1 sequence (D0C8Z9 1-672): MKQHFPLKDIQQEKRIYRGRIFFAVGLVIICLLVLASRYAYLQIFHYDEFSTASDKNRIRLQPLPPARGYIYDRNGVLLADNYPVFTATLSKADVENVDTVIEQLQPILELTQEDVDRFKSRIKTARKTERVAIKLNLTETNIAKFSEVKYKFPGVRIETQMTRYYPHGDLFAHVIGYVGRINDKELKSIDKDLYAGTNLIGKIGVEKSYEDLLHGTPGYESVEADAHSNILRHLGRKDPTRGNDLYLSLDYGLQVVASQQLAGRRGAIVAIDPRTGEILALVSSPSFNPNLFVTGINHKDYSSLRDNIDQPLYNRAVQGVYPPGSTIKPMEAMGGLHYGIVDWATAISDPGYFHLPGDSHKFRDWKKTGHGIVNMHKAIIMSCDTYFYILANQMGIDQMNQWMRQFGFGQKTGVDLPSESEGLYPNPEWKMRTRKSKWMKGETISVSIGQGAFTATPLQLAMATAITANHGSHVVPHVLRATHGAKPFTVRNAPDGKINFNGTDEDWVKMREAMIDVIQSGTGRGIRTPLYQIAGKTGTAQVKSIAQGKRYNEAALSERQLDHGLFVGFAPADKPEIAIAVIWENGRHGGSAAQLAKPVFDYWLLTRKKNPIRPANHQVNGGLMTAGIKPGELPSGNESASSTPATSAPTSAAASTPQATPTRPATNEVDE
Assay: Gel-based Bocillin FL competition PBP binding assay
Details: A. baumannii ACM1320 membranes; Bocillin FL step 0°C for xeruborbactam, 30°C for beta-lactams; read-out: Relative binding IC50, PBP2
Experimental: Ten milliliters of overnight bacterial culture was inoculated in 1 L of LB medium and grown to an OD600 of 0.7 to 0.9. The cell pellet was washed once with 50 mL of solution containing 100 mM Na-phosphate at pH 7.0 and 100 mM NaCl and resuspended in 10 mL of the same buffer with one tablet of EDTA-free mini-protease inhibitor and 10 mg of lysozyme. Cell suspensions were incubated for 45 min at 37°C, and then 200 μL of DNase I was added along with MgSO4 (to a final concentration of 10 mM), followed by three cycles of freeze-thawing (10 min and 20 min, respectively). Four cycles of sonication at maximum power were performed next, each cycle lasting for 30 s with 1 min on ice between cycles. The cell suspension was centrifuged at 12,000 × g for 10 min at 4°C. The supernatant was collected and centrifuged at 100,000 × g for 45 min at 4°C. The pellet was washed three times with 10 mL of 100 mM Na-phosphate, pH 7.0, by resuspension and subsequent centrifugation at 100,000 × g for 10 min at 4°C. The pellet was finally resuspended in 1.5 mL of 100 mM Na-phosphate, pH 7.0, and passed several times through a Dounce homogenizer (tight pestle). Membrane preparations were aliquoted and kept at −80°C.
Five microliters of total bacterial membrane preparation was mixed with 5 μL of a test compound at a desired concentration in 100 mM Na-phosphate buffer, pH 7.0. Incubation of bacterial membrane preparations with control beta-lactams was performed for 10 min at 30°C; xeruborbactam was incubated with membrane preparations for 1 h at 30°C. Five microliters of 150 μM Bocillin FL fluorescent probe (Thermo Fisher Scientific) was added, and the reaction mixture was incubated for an additional 10 min at 30°C in the case of beta-lactams or for 20 min on ice (0°C) in the case of xeruborbactam. […] At the end of the incubation step, 15 μL of 2× SDS sample loading buffer was added, and the reaction mixture was incubated for 5 min at 95°C. Twenty-five microliters of the reaction mixture was then loaded on an 8% SDS Tris-glycine gel (Thermo Fisher Scientific). At the end of the run, the gel was briefly rinsed with water and fixed in 10% acetic acid, 40% methanol for 20 min. After an additional wash in water for 30 min, the gel was scanned on a Typhoon Trio+ Imager using a blue laser filter (excitation, 488 nm, and emission, 520 nm). Densitometry of the gel images was performed using ImageQuant software (Molecular Dynamics). IC50 values were calculated with Prism software (GraphPad).

Row | SMILES | IC50 [µM]
1 | C[C@@H](O)[C@H]1C(=O)N2C(C(=O)O)=C(S[C@@H]3CN[C@H](C(=O)N(C)C)C3)[C@H](C)[C@H]12 [Meropenem] | 0.011
2 | O=C(O)c1c(F)ccc2c1OB(O)[C@@H]1C[C@H]21 [Xeruborbactam] | 23 ± 2
